Source: patent US20250288570A1, “TREATMENT OF NEUROLOGICAL DISORDERS” (Praxis Precision Medicines, Inc., priority 2022, published 2025)
“Also recorded” adds a separate entry of the source.

Assays:
[1] = Phase 1 clinical trial, single ascending dose (Part A), healthy volunteers; assay type: in vivo, human
Source text: This is a trial to assess the safety, tolerability, pharmacokinetics (PK), and pharmacodynamics (PD) of Compound 1 in healthy participants aged 18 to 55 years (inclusive). The trial is initially comprised of 2 parts, with 1 additional optional part, as follows: • Part A is randomized, double-blinded, and placebo-controlled. Part A is designed to investigate the safety, PK, and PD of single ascending doses of Compound 1. • Part B is randomized, double-blinded, and placebo-controlled. Part B is designed to investigate the safety, PK, and PD of multiple ascending doses (selected based on the results from Part A) of Compound 1. • Part C (optional) is a randomized, open-label, crossover design food effect evaluation to investigate the PK of a single dose (selected based on the results from Part A) of Compound 1 in the fasted and fed state.
Safety and tolerability assessments for Parts A, B, and C will include vital signs, 12-lead ECGs, physical examinations, clinical laboratory tests, and the C-SSRS (for Part B).
Healthy participants will be enrolled to receive single ascending oral doses of Compound 1 or placebo on Day 1. FIG. 14A is an illustration of the dosing scheme for Part A (single ascending dose) of the trial. Dose escalation in Part A will initially be conducted in up to a total of 4 planned cohorts (Cohorts A1 to A4). Following completion of Cohort A4, up to an additional 3 escalation cohorts may be added. […] Doses may be adjusted upward or downward based on safety, tolerability, and PK data from the preceding cohorts. Cohorts after A4 will be numbered sequentially (A5, A6, etc.). […]
Compound 1 will be administered to Cohort A1 participants at the starting dose of 5 mg. […] The safety and tolerability of each sentinel participant will be monitored until Day 2 and will be reviewed prior to dosing the remainder of participants in the cohort. […]
Cohorts will be dosed in an escalating order. […] If the current dose level is determined to be safe and tolerated by the SRC, the next dose cohort will be randomized to receive the selected dose of active Compound 1 or placebo. […]

human Nav1.6 = target: T1, human Nav1.6 (Homo sapiens, UniProt Q9UQD0); assay: ATX-II activated late (persistent) INa block, automated patch clamp in HEK cells; assay type: cell-based
T1 construct: HEK-293 cell lines stably expressing human Nav1.6 (NP_055006) were used; expressed in transfected cells
T1 sequence (Q9UQD0 whole entry): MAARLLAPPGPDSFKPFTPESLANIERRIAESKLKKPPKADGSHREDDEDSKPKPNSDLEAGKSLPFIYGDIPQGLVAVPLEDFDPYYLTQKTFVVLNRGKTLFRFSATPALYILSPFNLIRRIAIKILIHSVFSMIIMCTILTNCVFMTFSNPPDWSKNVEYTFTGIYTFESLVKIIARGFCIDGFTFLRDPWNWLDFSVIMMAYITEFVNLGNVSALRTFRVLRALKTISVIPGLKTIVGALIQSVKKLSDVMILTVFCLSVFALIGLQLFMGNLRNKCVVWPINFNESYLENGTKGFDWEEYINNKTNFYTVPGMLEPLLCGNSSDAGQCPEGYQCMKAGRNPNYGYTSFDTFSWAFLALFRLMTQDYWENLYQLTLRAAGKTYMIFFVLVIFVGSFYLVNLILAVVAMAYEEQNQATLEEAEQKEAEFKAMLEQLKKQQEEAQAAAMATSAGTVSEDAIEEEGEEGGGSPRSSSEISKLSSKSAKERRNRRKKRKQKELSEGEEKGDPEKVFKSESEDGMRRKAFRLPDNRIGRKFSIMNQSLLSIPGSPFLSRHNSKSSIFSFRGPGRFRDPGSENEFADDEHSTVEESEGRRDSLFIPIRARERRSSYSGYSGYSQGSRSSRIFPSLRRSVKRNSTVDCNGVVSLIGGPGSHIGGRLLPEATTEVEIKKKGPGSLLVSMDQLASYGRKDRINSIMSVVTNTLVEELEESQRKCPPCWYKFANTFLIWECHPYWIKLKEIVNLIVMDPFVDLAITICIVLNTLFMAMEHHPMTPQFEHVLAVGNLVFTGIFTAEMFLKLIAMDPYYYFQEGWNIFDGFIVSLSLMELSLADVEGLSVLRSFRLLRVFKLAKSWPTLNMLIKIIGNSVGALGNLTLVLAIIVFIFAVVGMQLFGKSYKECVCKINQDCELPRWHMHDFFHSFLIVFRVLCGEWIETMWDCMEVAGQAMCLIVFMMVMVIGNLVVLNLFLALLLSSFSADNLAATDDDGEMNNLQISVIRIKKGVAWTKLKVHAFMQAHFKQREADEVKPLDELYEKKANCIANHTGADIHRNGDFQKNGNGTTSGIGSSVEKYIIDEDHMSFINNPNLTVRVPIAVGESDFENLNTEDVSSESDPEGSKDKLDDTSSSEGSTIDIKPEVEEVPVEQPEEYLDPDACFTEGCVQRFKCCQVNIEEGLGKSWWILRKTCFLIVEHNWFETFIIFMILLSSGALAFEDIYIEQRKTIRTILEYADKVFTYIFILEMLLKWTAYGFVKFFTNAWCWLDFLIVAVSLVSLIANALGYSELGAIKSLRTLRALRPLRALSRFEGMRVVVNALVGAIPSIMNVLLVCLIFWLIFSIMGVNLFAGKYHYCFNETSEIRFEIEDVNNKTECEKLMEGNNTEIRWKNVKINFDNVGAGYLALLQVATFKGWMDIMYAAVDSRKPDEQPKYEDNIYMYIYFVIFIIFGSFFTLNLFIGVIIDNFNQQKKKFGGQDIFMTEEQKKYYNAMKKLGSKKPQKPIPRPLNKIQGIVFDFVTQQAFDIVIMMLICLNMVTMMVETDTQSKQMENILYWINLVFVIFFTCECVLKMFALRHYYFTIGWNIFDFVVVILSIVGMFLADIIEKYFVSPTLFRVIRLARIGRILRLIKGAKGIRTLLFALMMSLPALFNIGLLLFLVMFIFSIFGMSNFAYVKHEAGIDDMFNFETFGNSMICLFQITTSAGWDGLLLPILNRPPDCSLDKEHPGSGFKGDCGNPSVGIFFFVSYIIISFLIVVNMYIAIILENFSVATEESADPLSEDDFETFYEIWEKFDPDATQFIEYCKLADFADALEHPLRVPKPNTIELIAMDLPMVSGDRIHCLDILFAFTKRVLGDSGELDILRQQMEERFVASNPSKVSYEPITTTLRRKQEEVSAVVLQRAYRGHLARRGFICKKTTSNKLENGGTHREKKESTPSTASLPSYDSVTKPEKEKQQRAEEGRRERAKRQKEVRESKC

[2] = system: psychomotor seizures induced by 6-Hz electrical stimulation in CD-1 mice; assay: 6-Hz psychomotor seizure model (32 and 44 mA); assay type: in vivo, mouse
Source text: The 6-Hz test is a validated model of focal seizures for evaluating the anti-seizure potential of compounds. The 6-Hz seizure model can be performed at different stimulation intensities (32 or 44 mA), with the higher intensity (44 mA) used as a model of pharmacoresistant seizures. The positive control valproate is an approved anti-seizure medicine (ASM).
This study evaluated the efficacy of Compound 1 in attenuating psychomotor seizures induced by 6-Hz electrical stimulation at two different stimulation intensities (32 and 44 mA) in wild-type CD-1 mice. Psychomotor seizures are defined as the expression of at least one of the following behaviors: stun/immobility, forelimb clonus, straub tail or lateral head movement within 30 seconds of the stimulus. Protection is defined as a complete absence of the above behaviors within 30 seconds of the stimulus. Doses of Compound 1 used were 1 mg/kg, 3 mg/kg and 6 mg/kg administered orally. Valproate (600 mg/kg, administered intraperitoneally) was used as a positive control.
Male CD-1 mice (Charles River Laboratories; St. Constant, Quebec, CAN) were used for the study. Body weights at the time the experiment was carried out were 30-40 grams. The mice were group-housed in polycarbonate cages according to standard operating procedures. Animals were maintained on a 12-hour light/12 hour dark cycle, with all experimental activities occurring during the light phase. Food and water were available ad libitum. Mice acclimated to the test facility for at least 72 hours prior to testing.
Treatment was conducted using Compound 1 and 35% 2-hydroxypropyl-β-cyclodextrin (35% HPBCD, used as a negative control). Compound 1 stock solution was prepared fresh each experiment day in 35% HPBCD. […] Valproate was prepared fresh each experiment day in a vehicle of saline and dosed at 10 mL/kg.
Mice were administered vehicle (35% HPBCD), a single dose of Compound 1 (1 mg/kg, 3 mg/kg or 6 mg/kg) or valproate (600 mg/kg). Vehicle and Compound 1 were administered via oral gavage 30 minutes prior to […]. Valproate was administered as an intraperitoneal injection 60 minutes prior to the electrical stimulus.
Immediately prior to conducting the 6-Hz seizure test, a brief neurological assessment was performed. Each animal was visually assessed and received a score from 0 to 3 according to the following scoring system: neurological score of 0 corresponds to a normal status; neurological score of 1 corresponds to a modest decrease in spontaneous activity; neurological score of 2 corresponds to a marked decrease in spontaneous activity; and neurological score of 3 corresponds to loss of righting reflex.
Corneal electrodes moistened with saline (ECT unit 57800; Ugo Basile) were used to deliver the electrical stimulus (6-Hz, 0.2 millisecond pulse width, 3 seconds duration). The current delivered was either 32 mA or 44 mA. Immediately after the electrical stimulus, each mouse was monitored continuously for 30 seconds by an observer blinded to the treatment group. […] Mice were scored for the presence or absence of each seizure behavior, with a maximum total score of 4. […] At the end of the 6-Hz seizure test, plasma and brain samples were collected.
Mice were anesthetized with isoflurane, whole blood was collected via cardiac puncture and brains were harvested. […] Plasma and brain samples were stored at −80° C. and analyzed to determine levels of Compound 1. […]

CCOC(F)(F)c1nnc2ccc(-c3cnc(OCC(F)(F)F)c(F)c3)cn12 [Compound 1]
safety and tolerability (in words) ([1]; healthy participants, single oral doses up to 45 mg): safe and generally well tolerated
most frequently reported TEAEs ([1]; single doses up to 45 mg): headache and fatigue
severity of treatment-emergent adverse events ([1]; single doses up to 45 mg): mild in severity
persistent INa preference to TB (human Nav1.6): 68 ×
potency for persistent INa relative to the other tested INa blocking agents (human Nav1.6): at least 550 ×
inhibition of and preference for persistent INa (in words) (human Nav1.6; hNav1.6): concentration dependent inhibition of late sodium current; also recorded: preference for persistent INa relative to peak INa for all assay conditions; also recorded: potently inhibited ATX-II-induced persistent INa; also recorded: potent inhibition of persistent INa; also recorded: potent inhibitor of persistent INa; also recorded: increased potency for persistent INa relative to standard NaV-targeting ASMs
Persistent INa Hill slope (human Nav1.6; hNav1.6 in HEK cells): (1.4)
seizure score (in words) ([2]; 6 mg/kg p.o., 32 and 44 mA): significantly reduced the seizure score; also recorded: reduced seizure scores compared to vehicle
incidence of seizures (in words) ([2]; 6 mg/kg p.o., 32 mA): significantly reduced the incidence of seizures
neurological scores ([2]; any dose of Compound 1 (1, 3, 6 mg/kg)): all neurological scores were zero; also recorded: normal
